Columns and labels:
Type in all cases: physicochemical
[1] = Viscosity of molten mixture of mesalamine and hard fat; settings: molten mixture prepared from the mesalamine lot, Table 11
[2] = Tap density of mesalamine powder by USP tapped density test <616>; settings: for Mesalamine Tap Density: mesalamine lot used for the molten mixture, Table 9; for Tapped Density: mesalamine powder lot, Table 8; for TD (measured tapped density): individual mesalamine lot used in combination, Table 10
Procedure: Unless otherwise specified, tap density is measured by the USP tapped density test <616>.
The individual tap densities of each mesalamine lot were used to calculate a composite tapped density (CTD) based on the amount of each lot. The calculated CTD can be expressed by the following equation: (CDF)i+(CDF)2 + . . . (CDF)n=CTD where CTD=composite tapped density: CDF=contributed density factor=% of total drug used/100×TD; TD=measured tapped density; and n=number of drug lots used.

[3] = Viscosity of molten mixture of mesalamine and hard fat; settings: in-process molten mixture of mesalamine and hard fat
Procedure: Molten mixtures were prepared by the procedure described in Example 1 using mesalamine lots A, B, and E, The molten mixtures had the viscosities reported in Table 9 below.
The in-process molten mixtures of mesalamine and hard fat used in the preparation of the suppositories described above with respect to FIGS. 4 to 6 had the viscosities reported in Table 12 below. Suppositories could not be made from Grades C and D from supplier 2.

## Nc1ccc(O)c(C(=O)O)c1 [Mesalamine Lot No. 7, mesalamine]
[1]; listed as 7
  Viscosity: 37830 cps
[2]; mesalamine lot nos. 1-8, Table 11, listed as 7
  Tap Density: 0.36 g/mL

## Nc1ccc(O)c(C(=O)O)c1 [Mesalamine Lot A, mesalamine]
[2]; listed as A
  Mesalamine Tap Density: 0.81 g/mL
  Tapped Density: 0.81 g/mL

## Nc1ccc(O)c(C(=O)O)c1 [Mesalamine Lot C, mesalamine]
[2]; listed as C
  TD (measured tapped density): 0.68 g/mL
  Tapped Density: 0.68 g/mL

## Nc1ccc(O)c(C(=O)O)c1 [Mesalamine Lot G, mesalamine]
[2]; listed as G
  TD (measured tapped density): 0.60 g/mL
  Tapped Density: 0.60 g/mL

## Nc1ccc(O)c(C(=O)O)c1 [Supplier 2, grade B, mesalamine]
[3]; Drug Load 33% w/w
  Dispersion Viscosity: 515 Cps
[3]; Drug Load 37% w/w
  Dispersion Viscosity: 845 Cps
[3]; Drug Load 42% w/w
  Dispersion Viscosity: 1911 Cps

## Nc1ccc(O)c(C(=O)O)c1 [Mesalamine Lot E, mesalamine]
[2]; listed as E
  TD (measured tapped density): 0.68 g/mL
  Mesalamine Tap Density: 0.68 g/mL
  Tapped Density: 0.68 g/mL

## Nc1ccc(O)c(C(=O)O)c1 [Supplier 2, grade A, mesalamine]
[3]; Drug Load 33% w/w
  Dispersion Viscosity: 595 Cps
[3]; Drug Load 37% w/w
  Dispersion Viscosity: 1084 Cps
[3]; Drug Load 42% w/w
  Dispersion Viscosity: 2553 Cps

## Nc1ccc(O)c(C(=O)O)c1 [Mesalamine Lot No. 8, mesalamine]
[1]; listed as 8
  Viscosity: 33735 cps
[2]; mesalamine lot nos. 1-8, Table 11, listed as 8
  Tap Density: 0.37 g/mL

## Nc1ccc(O)c(C(=O)O)c1 [Mesalamine Lot F, mesalamine]
[2]; listed as F
  TD (measured tapped density): 0.46 g/mL
  Tapped Density: 0.46 g/mL

## Nc1ccc(O)c(C(=O)O)c1 [Supplier 2, grade C, mesalamine]
[3]; Drug Load 33% w/w
  Dispersion Viscosity: Too Viscous
[2]; mesalamine by source, Table 12
  Tap Density: 0.00058 g/mL

## Nc1ccc(O)c(C(=O)O)c1 [Mesalamine Lot D, mesalamine]
[2]; listed as D
  TD (measured tapped density): 0.37 g/mL
  Tapped Density: 0.39 g/mL

## Nc1ccc(O)c(C(=O)O)c1 [Mesalamine Lot B, mesalamine]
[2]; listed as B
  Mesalamine Tap Density: 0.72 g/mL
  Tapped Density: 0.72 g/mL

## Nc1ccc(O)c(C(=O)O)c1 [Supplier 2, grade D, mesalamine]
[3]; Drug Load 33% w/w
  Dispersion Viscosity: Poor

## Nc1ccc(O)c(C(=O)O)c1 [Supplier 1, mesalamine]
[3]; Drug Load 33% w/w
  Dispersion Viscosity: 694 Cps
[3]; Drug Load 37% w/w
  Dispersion Viscosity: 1131 Cps
[3]; Drug Load 42% w/w
  Dispersion Viscosity: 2512 Cps

From patent publication US9884018B2, “Mesalamine suppository” (Aptalis Pharma Canada Inc., priority 2007, dated 2018)
